Assays:
rats = test: T-labyrinth learning and memory model in rats; type: in vivo, rat; conditions: after denial of food
Text: In a learning and memory model in rats, the T-labyrinth method is used, in which rats, after denial of food, have to learn to find a reward in the arm of the labyrinth which is opposite the arm in which the reward was offered in the previous experiment (Moran, P. et al., Brain Res. 1992; 569:156-158).

mice [1] = test: four plate test (model of acute stress anxiety); type: in vivo, mouse; conditions: 5 minute test period
Text: A typical model of acute stress anxiety is the “four plate test” as described by C. Aron et al., Neuropharmacology 1971, 10: 459-469.
The device consists of a small box whose base is composed of four metal plates. Each time the mouse moves from one plate to the next, it receives a short current pulse on the foot, thus reducing the investigative behaviour. The number of changes from one plate to the next which occur with punishment (i.e. the number of current pulses accepted by the animal) is recorded over a test period of 5 minutes.

mice [2] = test: isolation-induced fighting behaviour in mice (aggression model); type: in vivo, mouse
Text: A typical animal model of aggression is the isolation-induced fighting behaviour in mice (Paivarinta, P., Pharmacol. Biochem. Behav., 1992; 42: 35-39; Haller, J. et al., Psychopharmacology, 1996; 126: 345-350). […] The number of bites or bite attacks can be used as a measure of the aggression.

mice [3] = test: hyperlocomotory activity induced by dizocilpine; type: in vivo, mouse
Text: Animal models of treatment-resistant schizophrenia and psychosis in tardive dyskinesia are so-called stimulant-induced psychoses (Ellison, G., Brain Res. Rev. 1994; 137:193-197). Chronic misuse of ‘dopamine agonists’, such as, for example, amphetamine or cocaine, or antagonists of N-methyl-D-aspartate (NMDA), such as, for example, ketamine, phencyclidine and dizocilpine, causes a syndrome of behavioural effects which has many features in common with the symptom complex of schizophrenia, i.e. these substances induce schizophrenia-like symptoms in healthy people and accelerate psychotic reactions in stabilised schizophrenic patients (Luby, E. D. et al., Am. Med. Assoc. Arch. Neurol. Psychiatry, 1959; 119:61-67; Lahti, A. C. et al., Neuropsychopharmacology, 1995; 13:9-19; Malhotra, A. K. et al., Neuropsychopharmacology, 1996; 14:301-307; Adler, C. M. et al., Biol. Psychiatry 1998; 43:811-816). In rodents, these stimulants cause extreme hyperlocomotory activity (Schaefer, G. J. et al., Neuropharmacology 1984; 23:909-914; Millan, M. J. et al., Eur. J. Neurosci. 1999; 11:419-432; O'Neill, M. F. et al., Psychopharmacology, 1999, 145:237-250).

[4] = tested on: recombinant in-bred mice (crossing of the strains C57ML/6J and DBA/2J); test: pre-pulse inhibition in recombinant in-bred mice with inherently poor pre-pulse inhibition; type: in vivo; conditions: recombinant mouse strain with poor pre-pulse inhibition
Text: A typical animal model of schizotypical personality disorders and the prevention of schizophrenia in first-degree relatives is restricted pre-pulse inhibition. Pre-pulse inhibition is a non-species-specific phenomenon in which the normal reflex reactions to discrete sensory events are reduced if slight prior stimulation has been carried out in advance; pre-pulse inhibition can be used to assess sensomotory gating processes. In patients with schizotypical personality disorders and their first-degree relatives (in whom there is a high risk of the development of schizotypical personality disorders), the normal function of pre-pulse inhibition is disturbed (Braff, D. et al., Psychophysiology, 1978; 15:339-343; Braff, D., Arch Gen Psychiatry, 1992; 49:206-215; Bolino, F. et al., Biol Psychiatry, 1994; 36:670-679). Recombinant in-bred mice having an inherently poor pre-pulse inhibition (crossing of the strains C57ML/6J and DBA/2J) represent a corresponding animal model (McCaughran, J. A. Jr. et al., Psychopharmacology 1997; 134:131-140; McCaughran, J. A. Jr. et al., Behav. Genetics, 1999; 29:21-30.).

monkeys = test: DMTS method (delayed matching to sample) in monkeys; type: in vivo, monkey
Text: Of the learning models, the DMTS method (DMTS=delayed matching to sample) in monkeys (Buccafusco, J. J. et al., Psychopharmacology, 1995; 120: 256-266; Buccafusco, J. J. et al., Drug Dev. Res., 1996; 38: 196-203; Prendergast, M. A. et al., Pharmacol. Biochem. Behav., 1997; 56: 81-87) is potentially of interest since the various aspects of learning and memory can be measured in this method. An experiment begins with the illumination of a sample key provided with one of three coloured discs. The monkeys are taught to press the illuminated sample key in order to initiate the experiment. After the delay interval, the two keys available for selection illuminate, but not the sample key. One of the two keys available for selection is offered with the colour that the sample key had before the delay interval, while the other (wrong) key available for selection has one of the two other colours. If the monkey makes the correct assignment (i.e. if it presses the key available for selection which has the same colour as the stimulus key), the response is rewarded. […] Finally, all stimulus equalisation measures were assigned to the delay duration. […]

mice [5] = test: light-dark choice test (model of generalised anxiety disorders); type: in vivo, mouse; conditions: period of 5 minutes
Description: A typical model of generalised anxiety disorders is the “light-dark choice test” as described by J. N. Crawly, Pharmacol. Biochem Behav. 1981, 15: 695-699.
The corresponding device for the selection of brightness or darkness consists of two boxes connected to one another, one box being darkened and the other being brightly illuminated. A mouse is placed in one of the boxes, and it is measured how much time the mouse spends in the illuminated box over a period of 5 minutes. Normal mice only go into the illuminated compartment rarely and spend almost all the time in the dark compartment.

Structure (SMILES): N#Cc1c[nH]c2c(C(=O)N3CCN(CCc4ccc(F)cc4)CC3)cccc12 [(3-cyano-1H-indol-7-yl)[4-(4-fluorophenethyl)piperazin-1-yl]methanone]
- learning and memory in the T-labyrinth (rats): has memory-promoting effects in the learning process and facilitates better and faster learning with a shorter performance time
- number of changes with punishment (mice [1]): increases the number of changes with punishment
- isolation-induced fighting behaviour (mice [2]): reduces the isolation-induced fighting behaviour
- hyperlocomotory activity induced by dizocilpine (mice [3]): significantly reduces hyperlocomotory activity
- deficits in pre-pulse inhibition [4]: significantly reduces the deficits in pre-pulse inhibition
- DMTS hit rate and general aspects of working memory (monkeys): clearly improves the DMTS hit rate
- time spent by the mice in the illuminated compartment (mice [5]): increases the time spent by the mice in the illuminated compartment

Source: patent US20050014766A1, “Use of n-(indolecarbonyl-)piperazine derivatives” (priority 2002, published 2005)
